Assay results: US11261478B2, “Thermal stable luciferase with improved resistance to inhibition by luciferin break-down products” (priority 2016, dated 2022)

How the values were obtained:
[1] = target: UltraGlo luciferase variant Triple+300 (H244W, T344A, I396K, C300G), SEQ ID NO: 11 (Photuris pensylvanica, UniProt Q27757, A101V/A17E/A262V/C221A/D34A/D353K/D394P/E2A/F294L/F367L/F500Y/G84S/H14Y/H220I/H244W/I125V/I173S/I396K/K413N/L193S/L91V/N183Y/N412D/N499D/P295A/R357K/S105N/S204P/S36P/S399G/S502A/T234S/T249M/T344A/T354G/T386P/V145I/V194I/V203L/V300G/V356A/Y144S/Y27D); test: Competitive inhibition of F-luciferin luminescence by dehydro-F-luciferin, purified Triple+300 luciferase mutant; format: biochemical; settings: F-luciferin 1 mM, ATP 0.5 mM final, 3 minutes at room temperature, Michaelis-Menten competitive inhibition model
Chain of UltraGlo luciferase variant Triple+300 (H244W, T344A, I396K, C300G), SEQ ID NO: 11 (Q27757 other isoform, or with tags, fused parts or gaps with the stated changes): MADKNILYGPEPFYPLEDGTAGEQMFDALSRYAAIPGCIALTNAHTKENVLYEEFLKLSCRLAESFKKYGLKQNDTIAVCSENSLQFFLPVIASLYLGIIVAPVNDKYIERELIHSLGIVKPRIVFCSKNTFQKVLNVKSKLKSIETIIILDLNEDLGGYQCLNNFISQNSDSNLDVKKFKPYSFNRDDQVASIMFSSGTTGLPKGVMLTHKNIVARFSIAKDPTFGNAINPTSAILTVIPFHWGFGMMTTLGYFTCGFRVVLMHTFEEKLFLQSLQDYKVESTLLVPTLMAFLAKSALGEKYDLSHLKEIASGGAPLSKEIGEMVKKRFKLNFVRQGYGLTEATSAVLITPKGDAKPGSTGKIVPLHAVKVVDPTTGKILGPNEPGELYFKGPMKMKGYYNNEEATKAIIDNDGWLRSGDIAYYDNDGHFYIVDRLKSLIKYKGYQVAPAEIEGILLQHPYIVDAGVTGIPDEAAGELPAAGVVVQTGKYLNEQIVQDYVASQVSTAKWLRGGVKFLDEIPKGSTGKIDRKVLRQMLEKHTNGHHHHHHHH
Experimental: (§1) To explore the inhibition of F-luciferin luminescence by dehydro-F-luciferin by combination mutants, the mutant Triple+300 (H244W, T344A, I396K, C300G) was screened for its resistance to dehydroluciferin.
(§2) Purified UltraGlo and Triple+300 luciferase enzymes were serially diluted from stocks in 1×TBS+1.0% Prionex to a concentration of 0.01 mg/ml. Racemic F-luciferin was serially diluted from stocks in water to 22 mM. Racemic dehydro-F-luciferin was serially diluted from stocks in water to 10 mM, and then 8 consecutive 4-fold serial dilutions were carried out for each concentration tested. ATP was diluted to 1 mM in BrightGlo Buffer or Detection Reagent buffer (depending on final reaction destination) to 1 mM concentration.
(§3) The following components were then combined into wells of a flat bottom, white, 96-well plate: 50 ul diluted ATP in buffer (BrightGlo or Detection Reagent; 0.5 mM final concentration), 50 ul diluted luciferase enzyme ([…] final concentration), 5 ul diluted F-luciferin (1 mM final concentration), and 4 ul diluted dehydro-F-luciferin ([…] final concentration)
(§4) Reactions were incubated for 3 minutes at room temperature, and luminescence was measured using a GloMax Multi+plate reader. Data were analyzed in GraphPad Prism 7 using nonlinear regression by fitting the data to a Michaelis-Menten competitive inhibition enzyme kinetic model.

[2] = target: T1, UltraGlo luciferase (parent, ULTRA GLO luciferase, SEQ ID NO: 3) (Photuris pensylvanica, UniProt Q27757, A101V/A17E/A262V/C221A/D34A/D353K/D394P/E2A/F294L/F367L/F500Y/G84S/H14Y/H220I/I125V/I173S/K413N/L193S/L91V/N183Y/N412D/N499D/P295A/R357K/S105N/S204P/S36P/S399G/S502A/T234S/T249M/T354G/T386P/V145I/V194I/V203L/V300C/V356A/Y144S/Y27D); test: Competitive inhibition of F-luciferin luminescence by dehydro-F-luciferin, purified UltraGlo luciferase; format: biochemical; settings: F-luciferin 1 mM, ATP 0.5 mM final, 3 minutes at room temperature, Michaelis-Menten competitive inhibition model
T1 construct: full length, 552 aa
T1 sequence (Q27757 other isoform, or with tags, fused parts or gaps with the stated changes): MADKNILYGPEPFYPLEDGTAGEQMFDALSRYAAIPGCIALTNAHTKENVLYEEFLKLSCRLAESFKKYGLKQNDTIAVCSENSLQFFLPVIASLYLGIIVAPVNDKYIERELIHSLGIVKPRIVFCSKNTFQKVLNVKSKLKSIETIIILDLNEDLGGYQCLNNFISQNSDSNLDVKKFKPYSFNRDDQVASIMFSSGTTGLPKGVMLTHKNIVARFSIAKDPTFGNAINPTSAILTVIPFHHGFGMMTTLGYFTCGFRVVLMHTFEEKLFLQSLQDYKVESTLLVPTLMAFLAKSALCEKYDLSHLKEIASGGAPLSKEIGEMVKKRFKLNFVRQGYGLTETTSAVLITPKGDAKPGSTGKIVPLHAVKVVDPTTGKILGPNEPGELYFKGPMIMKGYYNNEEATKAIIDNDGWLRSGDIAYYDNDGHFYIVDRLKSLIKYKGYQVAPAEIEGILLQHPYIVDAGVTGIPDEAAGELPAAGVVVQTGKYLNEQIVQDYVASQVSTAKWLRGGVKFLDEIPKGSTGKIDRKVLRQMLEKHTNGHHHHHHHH
Experimental: as §1, §2, §3, §4

SMILES: O=C(O)c1csc(-c2nc3cc(F)c(O)cc3s2)n1 [dehydro-F-luciferin]
- Ki ([1]; BrightGlo buffer): 71.8 nM
- Ki ([1]; Detection Reagent buffer): 563 nM
- Ki ([2]; BrightGlo buffer): 39.9 nM
- Ki ([2]; Detection Reagent buffer): 420 nM
